In patent publication US20110263693A1, “CELASTROL, GEDUNIN, AND DERIVATIVES THEREOF AS HSP90 INHIBITORS” (DANA-FARBER CANCER INSTITUTE, INC., priority 2006, published 2011):

Key:
[1] = system: LNCaP cells; assay: Adherent cell growth by luminescent assay of ATP level (CellTiterGlo); type: cell-based; details: for LNCaP cell viability at higher concentrations: in the presence of androgen, above EC50 of androgen signaling inhibition; for adherent growth of androgen-stimulated LNCaP cells: luminescent assay of ATP levels
Experimental: (§1) To investigate the cellular consequences of celastrol- and gedunin-mediated inhibition, we assessed whether celastrol and gedunin activity results in decreased cell growth, consistent with AR inhibition. […] Second, the compounds' effects on anchorage-independent growth of LNCaP cells was assayed in soft agar (FIG. 6D).
(§2) Adherent cell growth was measured by luminescent assay of ATP level (CellTiterGlo, Promega). LNCaP cells were grown in charcoal-stripped media for 2 days prior to simultaneous treatment with 1 nM R1881 and the relevant compound. Synergy was assessed by analyzing the IC50 of one drug over a range of concentrations of the other drug and vice versa. The resulting concentration pairs were visualized by isobologram (Gessner, 1995). Anchorage independence was measured by soft agar assay (Hahn et al., 1999). Compounds were added to both agar layers. Colonies were scored after 3 weeks.
We also addressed whether celastrol and gedunin activity results in decreased cell growth consistent with inhibition of AR and other HSP90 clients. […] Below this concentration, an intermediate viability inhibition is seen.

[2] = system: LNCaP cells; assay: Soft agar assay of anchorage-independent growth; type: cell-based; details: for colony size in soft agar: LNCaP; for anchorage-independent growth of LNCaP cells (colony number): soft agar, celastrol 0.625 μM, compared with bicalutamide (casodex)
Experimental: as §1, §2

[3] = system: androgen-responsive gene expression in LNCaP cells; assay: Genome-wide gene expression profiling with hierarchical clustering of androgen-responsive genes; type: cell-based; details: androgen-stimulated LNCaP, celastrol 1.25 μM, gedunin 20 μM, 24 hr
Experimental: We next asked whether celastrol and gedunin inhibit the broader program of androgen signaling beyond the GE-HTS signature. To address this question, we compared the genome-wide gene expression profiles of androgen-stimulated LNCaP cells treated with celastrol (1.25 μM) and gedunin (20 μM) for 24 hr to those of androgen-stimulated and androgen-deprived cells.
The mRNA expression profiles of celastrol- and gedunin-treated cells were determined by Affymetrix U133A microarray analysis in triplicate. RNA was isolated by Trizol extraction from LNCaP cells treated with vehicle, 1.25 μM celastrol, or 20 μM gedunin (1) for 24 hr in RPMI, 10% charcoal-stripped FBS, and 1 nM R1881 or vehicle, following androgen deprivation in charcoal-stripped media for 2 days, and (2) for 6 hr in RPMI with 10% FBS. IVT, labeling, hybridization, and washing were carried out on the Affymetrix High-Throughput Array platform using HT_HG-U133A preproduction arrays (early access version; part number 520276) for all but the 24 hr gedunin samples. U133A version 2 arrays were used for the 24 hr gedunin samples for technical reasons. Raw data were processed by RMA. For hierarchical clustering, a 169 probe set of androgen-regulated genes was defined and used to perform average linkage clustering (see below). […]

[4] = system: AR; assay: Western blot of AR protein level; type: cell-based; details: for concentration at and above which AR levels are decreased / concentration giving almost complete ablation of AR levels: LNCaP cells, 24 hr
Experimental: We first asked whether celastrol and gedunin decrease the levels of AR itself. […] Celastrol decreased AR levels in LNCaP cells at 0.5 μM and above, while gedunin decreases their levels at 10 μM and above. […] These concentration-dependent effects on AR are consistent with the observed inhibitory effects on AR-mediated signaling.

[5] = system: EGFR; assay: Western blot of HSP90 client EGFR level; type: cell-based, human; details: 24 hr, several cell lines, concentration-dependent
Experimental: (§3) To more broadly establish the effects of celastrol and gedunin on the HSP90 pathway, we tested whether these compounds decrease the protein levels of other HSP90 clients.
(§4) Celastrol (Calbiochem) and gedunin (Gaia Chemicals) were solubilized in DMSO. LNCaP.FGC cells (ATCC) were grown in RPMI 1640 (ATCC) with 10% FBS. Ba/F3 cells stably expressing human FLT3, EGFR, and BCR-ABL1 were grown in RPMI 1640, 10% FBS, and 2 ng/ml IL-3. SKBr3 cells were grown in a 1:1 DME:F12 plus 10% FBS.

[6] = system: BCR-ABL1; assay: Western blot of HSP90 client BCR-ABL1 level; type: cell-based, human; details: for protein level of BCR-ABL1: 24 hr, several cell lines, concentration-dependent
Experimental: as §3, §4

[7] = system: LNCaP cells; assay: Synergy with HSP90 inhibitors on cell growth by ATP level (isobologram); type: cell-based; details: 24 hr, low concentrations
Source text: If celastrol and gedunin act on HSP90 function via a distinct mechanism from HSP90 ATP-binding site inhibition (Bagatell et al., 2005), they might act synergistically with existing HSP90 inhibitors. We therefore tested the combinatorial effects of these compounds with HSP90 inhibitors on HSP90 client signaling and viability. […] Celastrol and gedunin therefore act synergistically with existing modes of HSP90 ATP-binding site inhibition to inhibit HSP90 client signaling and viability in a cellular context, consistent with their inhibition of HSP90 via a distinct mechanism.
as §2

[8] = system: HSP90; assay: HSP90 conformational change assay (bis-ANS); type: binding; details: purified HSP90 200 nM, bis-ANS 50 μM
Experimental: The final volume in each well was 100 μL. The plate was covered with foil and mixed for 30 s on a plate shaker before incubation for 60 min. at 37° C. Relative fluorescence units were measured using a SpectraMx Gemini XS spectrofluorometer (Molecular Devices Corporation, Sunnyvale, Calif.) at an excitation wavelength for bis-ANS of 393 nm and an emission wavelength of 484 nm. The data were acquired using the SOFTmaxPRO software (Molecular Devices Corporation, Sunnyvale, Calif.).

[9] = system: SKBR breast cancer cell line; assay: Apoptosis induction in SKBR cells; type: cell-based; details: to a greater extent than existing HSP90 ATP binding site inhibitors

Compound | LNCaP cell viability at higher concentrations [1] | adherent growth of androgen-stimulated LNCaP cells [1] | colony size in soft agar [2] | anchorage-independent growth of LNCaP cells (colony number) [2] | broader program of androgen signaling (genome-wide expression, hierarchical clustering) [3] | concentration at and above which AR levels are decreased [4] [µM] | concentration giving almost complete ablation of AR levels [4] [µM] | AR protein by immunoblotting ([4]; gedunin-treated LNCaP cells) | protein level of EGFR [5] | protein level of BCR-ABL1 [6] | sensitivity of BCR-ABL T315I point mutant to inhibition ([6]; Ba/F3 cells, relative to non-mutant) | combined effect with geldanamycin and 17-AAG on cell growth (ATP level) [7] | inhibition of HSP90 conformational changes induced by bis-ANS [8] | apoptosis in SKBR breast cancer cell line [9]
CC(=O)O[C@@H]1C[C@H]2C(C)(C)C(=O)C=C[C@]2(C)[C@H]2CC[C@@]3(C)[C@H](c4ccoc4)OC(=O)[C@H]4O[C@]43[C@@]21C [gedunin] | markedly decrease LNCaP prostate cancer cell viability | inhibit adherent and anchorage-independent growth | inhibited colony size | inhibited anchorage-independent growth to a similar degree as the AR competitive antagonist bicalutamide (casodex) | invoked a broader gene expression program similar to that induced by androgen deprivation | ≥ 10 | 20 | nearly entirely eliminated | lowered the protein levels | lowered the protein levels | increased sensitivity | synergistically inhibit cell growth | the effect is not well seen | induct apoptosis
CC1=C(O)C(=O)C=C2C1=CC=C1[C@@]2(C)CC[C@@]2(C)[C@@H]3C[C@](C)(C(=O)O)CC[C@]3(C)CC[C@]12C [celastrol] | markedly decrease LNCaP prostate cancer cell viability | inhibit adherent and anchorage-independent growth | inhibited colony size | inhibited anchorage-independent growth to a similar degree as the AR competitive antagonist bicalutamide (casodex) | invoked a broader gene expression program similar to that induced by androgen deprivation | ≥ 0.5 | 1 | – | lowered the protein levels | lowered the protein levels | – | synergistically inhibit cell growth | binds purified HSP90 in vitro | induct apoptosis
